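Where inhibition never reached the appropriate level, the endpoint shown equals the highest concentration tested. Otherwise, values were interpolated linearly from a five-concentration, 48-hour dose response in 96-well plates. TGI marks complete inhibition of growth.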
Tests used:
Experiment in all cases: NCI anticancer screen, dose series, 48 h
[1] = test system: MCF7 breast
[2] = test system: 786-0 renal
[3] = test system: RPMI-8226 leukemia
[4] = test system: MDA-MB-435
[5] = test system: DU-145 prostate
[6] = test system: CAKI-1 renal
[7] = test system: SF-268 CNS
[8] = test system: SK-OV-3 ovarian
[9] = test system: KM12 colon
[10] = test system: HCC-2998 colon
[11] = test system: NCI-H23 lung
[12] = test system: OVCAR-5 ovarian
[13] = test system: BT-549 breast
[14] = test system: MDA-N
[15] = test system: SNB-19 CNS
[16] = test system: OVCAR-3 ovarian
[17] = test system: SN12C renal
[18] = test system: T-47D breast
[19] = test system: OVCAR-8 ovarian
[20] = test system: CCRF-CEM leukemia
[21] = test system: COLO 205 colon
[22] = test system: UACC-257 melanoma
[23] = test system: SK-MEL-2 melanoma
[24] = test system: M14 melanoma
[25] = test system: ACHN renal
[26] = test system: EKVX NSCLC
[27] = test system: MOLT-4 leukemia
[28] = test system: RXF 393 renal
[29] = test system: LOX IMVI melanoma
[30] = test system: NCI-H522 lung
[31] = test system: A549 NSCLC
[32] = test system: U251 CNS
[33] = test system: SF-295 CNS
[34] = test system: MDA-MB-231 breast
[35] = test system: SNB-75 CNS
[36] = test system: MALME-3M melanoma
[37] = test system: HCT-15 colon
[38] = test system: HS 578T breast
[39] = test system: HOP-62 NSCLC
[40] = test system: UO-31 renal
[41] = test system: SK-MEL-5 melanoma
[42] = test system: HL-60(TB) leukemia
[43] = test system: NCI/ADR-RES ovarian
[44] = test system: K-562 leukemia
[45] = test system: OVCAR-4 ovarian
[46] = test system: HCT-116 colon
[47] = test system: HT29 colon
[48] = test system: SF-539 CNS
[49] = test system: IGROV1 ovarian
[50] = test system: UACC-62 melanoma
[51] = test system: SW-620 colon
[52] = test system: NCI-H226 lung
[53] = test system: TK-10 renal
[54] = test system: SK-MEL-28 melanoma
[55] = test system: PC-3 prostate
[56] = test system: NCI-H460 lung
[57] = test system: HOP-92 NSCLC
[58] = test system: A498 renal
[59] = test system: SR leukemia

## CC(C)[C@@H]1NC(=O)[C@H]2N=C(O[C@@H]2C)[C@@H]2CCCN2C(=O)[C@H](Cc2ccccc2)NC(=O)[C@@H]2CSC(=N2)[C@@H](Cc2ccccc2)NC(=O)[C@@H]2CSC1=N2
[1]
  TGI: > 50 µM
[2]
  TGI: > 50 µM
[3]
  TGI: 32.1 µM
[4]
  TGI: > 50 µM
[5]
  TGI: > 50 µM
[6]
  TGI: > 50 µM
[7]
  TGI: > 50 µM
[8]
  TGI: > 50 µM
[9]
  TGI: > 50 µM
[10]
  TGI: > 50 µM
[11]
  TGI: > 50 µM
[12]
  TGI: > 50 µM
[13]
  TGI: > 50 µM
[14]
  TGI: > 50 µM
[15]
  TGI: > 50 µM
[16]
  TGI: > 50 µM
[17]
  TGI: > 50 µM
[18]
  TGI: > 50 µM
[19]
  TGI: > 50 µM
[20]
  TGI: > 50 µM
[21]
  TGI: > 50 µM
[22]
  TGI: > 50 µM
[23]
  TGI: > 50 µM
[24]
  TGI: > 50 µM
[25]
  TGI: > 50 µM
[26]
  TGI: > 50 µM
[27]
  TGI: > 50 µM
[28]
  TGI: > 50 µM
[29]
  TGI: > 50 µM
[30]
  TGI: > 50 µM
[31]
  TGI: > 50 µM
[32]
  TGI: > 50 µM
[33]
  TGI: > 50 µM
[34]
  TGI: > 50 µM
[35]
  TGI: 6.28 µM
[36]
  TGI: > 50 µM
[37]
  TGI: > 50 µM
[38]
  TGI: > 50 µM
[39]
  TGI: > 50 µM
[40]
  TGI: > 50 µM
[41]
  TGI: > 50 µM
[42]
  TGI: 41.3 µM
[43]
  TGI: > 50 µM
[44]
  TGI: > 50 µM
[45]
  TGI: > 50 µM
[46]
  TGI: > 50 µM
[47]
  TGI: > 50 µM
[48]
  TGI: > 50 µM
[49]
  TGI: > 50 µM
[50]
  TGI: > 50 µM
[51]
  TGI: > 50 µM
[52]
  TGI: > 50 µM
[53]
  TGI: > 50 µM
[54]
  TGI: > 50 µM
[55]
  TGI: > 50 µM

## O=c1cc(-c2cccc(Cl)c2)[nH]c2ncccc12
[1]
  TGI: > 100 µM
[56]
  TGI: > 100 µM
[2]
  TGI: 14.5 µM
[4]
  TGI: 0.0382 µM
[5]
  TGI: > 100 µM
[6]
  TGI: 40.4 µM
[7]
  TGI: > 88.8 µM
[8]
  TGI: > 100 µM
[9]
  TGI: > 100 µM
[11]
  TGI: > 100 µM
[12]
  TGI: > 100 µM
[13]
  TGI: > 100 µM
[14]
  TGI: 0.0374 µM
[15]
  TGI: 24.1 µM
[16]
  TGI: 0.957 µM
[17]
  TGI: 30.5 µM
[19]
  TGI: > 100 µM
[20]
  TGI: > 100 µM
[22]
  TGI: > 100 µM
[23]
  TGI: > 86.5 µM
[24]
  TGI: > 100 µM
[25]
  TGI: > 100 µM
[26]
  TGI: > 100 µM
[27]
  TGI: > 24.8 µM
[28]
  TGI: 40.1 µM
[29]
  TGI: > 100 µM
[30]
  TGI: 0.914 µM
[31]
  TGI: > 100 µM
[32]
  TGI: 29.3 µM
[33]
  TGI: 0.438 µM
[35]
  TGI: > 56.1 µM
[36]
  TGI: > 100 µM
[57]
  TGI: > 100 µM
[37]
  TGI: > 100 µM
[38]
  TGI: 13 µM
[39]
  TGI: 33.4 µM
[40]
  TGI: > 54 µM
[41]
  TGI: 1.92 µM
[42]
  TGI: 0.152 µM
[58]
  TGI: > 100 µM
[43]
  TGI: > 100 µM
[45]
  TGI: > 100 µM
[46]
  TGI: 1.17 µM
[47]
  TGI: > 100 µM
[48]
  TGI: 0.374 µM
[49]
  TGI: > 58.9 µM
[59]
  TGI: > 100 µM
[50]
  TGI: > 100 µM
[51]
  TGI: > 100 µM
[52]
  TGI: > 100 µM
[53]
  TGI: > 100 µM
[54]
  TGI: > 100 µM
[55]
  TGI: 0.0694 µM
